According to patent US20260272865A1, “HYDROXYPHENYL PROPANOATE COMPOUNDS FOR TUMOUR IMMUNOTHERAPY, COMPOSITIONS AND USES THEREOF” (UTI LIMITED PARTNERSHIP, priority 2023, published 2026):

Assays:
IRF pathway = assay type: cell-based, human
[1] = test system: GSDMD-mediated anti-tumour immunity; experiment: Orthotopic M3-9-M^OVA RMS in WT vs GSDMD-KO mice; assay type: in vivo, mouse
Source text: It was hypothesized that the HPP metabolite enhances cancer immunity by targeting a critical signalling protein involved in the NF-κB pathway. […] Through nonparametric analysis of the response curves (NPARC) (Mol. Cell. Proteomics 18, (2019)), 647 potential protein targets of 3,2-HPP metabolite were identified (FIG. 10b). To narrow down the investigation, GSDMD was focused on (FIG. 10c, d), which is a cell membrane pore-forming protein that plays a critical role in inflammasome pathway, IL-1β release and tumour immunity (Cell Rep. 34, (2021); Cell Res. 25, 1285-98 (2015); J. Immunother. Cancer 10, (2022); Cell Rep. 41, (2022); Int. Immunopharmacol. 74, (2019); J. Dig. Dis. 19, (2018); Int. J. Biol. Sci. 17, (2021); Nat. Commun. 13, 1-20 (2022); BMC Cancer 20, (2020); Oncogene 41, 5092-5106 (2022)). A correlation between the expression of inflammasome genes, GSDMD and NF-κB1 in tumour infiltrated immune cells was observed (FIG. 11). Whether 3,2-HPP targets GSDMD-mediated anti-tumour immunity was validated by orthotopically implanting M3-9-M^OVA RMS into the gastrocnemius muscle of male C57BL/6NJ (WT) and C57BL/6N-Gsdmdem4Fcw/J (KO) mice (FIG. 10e).

M3-9-M^OVA tumours = experiment: Orthotopic M3-9-M^OVA rhabdomyosarcoma in IMDM-CR mice: immune surveillance, overall survival; assay type: in vivo, mouse

SMILES: O=C(O)CCc1ccccc1O [Compound I-1, 3-(2-hydroxyphenyl)propanoic acid]
- IRF pathway activation combined with PRR agonists (IRF pathway): potentiate
- effect on tumours implanted in GSDMD-KO mice ([1]; male C57BL/6N-Gsdmdem4Fcw/J (KO) mice): had no effect
- overall survival ([1]; male C57BL/6NJ (WT) mice): increased overall survival
- tumour growth ([1]; male C57BL/6NJ (WT) mice): decreased tumour growth
- overall survival, treatment initiated seven days after implantation (M3-9-M^OVA tumours; IMDM-CR mice, M3-9-M^OVA, treatment started 7 days after implantation): still effective
- immune surveillance of M3-9-M^OVA tumours (overall survival) (M3-9-M^OVA tumours; male IMDM-CR mice, i.p. treatment from day 1 post-implantation): enhance the immune surveillance
